Source: US6515112B2, “Cores for technetium radiopharmaceuticals” (Amersham PLC, priority 1989, dated 2003)

Tests used:
[1] = Solubility in solvents (observation); type: physicochemical; conditions: 99Tc complex, organic solvents
[2] = Stability to air and moisture (observation); type: physicochemical; conditions: 99Tc complex, isolated solid
[3] = Animal biodistribution studies of 99mTc complexes in rats; type: in vivo, Male Sprague Dawley rats; parameters: Heart / Blood / Muscle / Lung / Liver / Kidney / Bladder & Urine / Brain: unit not given here; conditions: i.v. tail vein
Description: Complex Preparation: 20-25 μl of hydrazine was added to 2 cm^3 of absolute ethanol, then ^99mTcO4^−(0.2-3.0 GBq) and 10 mg of ligand were added to the solution. This mixture was heated to 120° C. for 30-60 minutes, cooled to room temperature and analyzed. For biodistribution studies the total volume of he preparation was made up to 5 cm^3 by the addition of sterile saline solution.
Animal Biodistribution Studies: Six Male Sprague Dawley rats were infected while under light ether anaesthesia with 0.1 cm^3 of preparation (i.v., tail vein) and half were sacrificed by cervical dislocation while under ether anaesthesia at the appropriate time interval post-infection and dissected. Organs were weighed and their activities measured in an ionisation chamber. For the purposes of calculations blood was assumed to constitute 5.8% of the total body weight, muscle was assumed to be 43% and the lungs were assumed to weigh 1 g.

| Molecule | solubility [1] | stability to air / moisture [2] | Bladder & Urine ([3]; Time P. I. 2) | Blood ([3]; Time P. I. 2) | Heart ([3]; Time P. I. 2) | Kidney ([3]; Time P. I. 2) | Liver ([3]; Time P. I. 2) | Lung ([3]; Time P. I. 2) | Muscle ([3]; Time P. I. 2) | Bladder & Urine ([3]; Time P. I. 60) | Blood ([3]; Time P. I. 60) | Heart ([3]; Time P. I. 60) | Kidney ([3]; Time P. I. 60) | Liver ([3]; Time P. I. 60) | Lung ([3]; Time P. I. 60) | Muscle ([3]; Time P. I. 60) | S. I. ([3]; Time P. I. 60) | also measured |
| --- | --- | --- | --- | --- | --- | --- | --- | --- | --- | --- | --- | --- | --- | --- | --- | --- | --- | --- |
| Clc1ccc(N=[N][Tc]([Cl])([N]=Nc2ccc(Cl)cc2)([PH](c2ccccc2)(c2ccccc2)c2ccccc2)[PH](c2ccccc2)(c2ccccc2)c2ccccc2)cc1 [Complex 9, [TcCl(NNC6H4Cl)2(PPh3)2]] | reasonably soluble | air-stable |  |  |  |  |  |  |  |  |  |  |  |  |  |  |  |  |
| [Tc^III(NNC6H4NO2) (Cl(dmpe)2]^+ |  |  | 0.08 | 5.68 | 1.15 | 9.47 | 22.4 | 2.27 | 26.2 | 7.28 | 0.92 | 0.67 | 9.47 | 12.3 | 1.04 | 16.8 | 33.8 | Brain ([3]; Time P. I. 2): 0.12; H/Bl ([3]; Time P. I. 2): 3.00; H/Li ([3]; Time P. I. 2): 0.72; S. I. ([3]; Time P. I. 2): 13.0; Brain ([3]; Time P. I. 60): 0.06; H/Bl ([3]; Time P. I. 60): 11.0; H/Li ([3]; Time P. I. 60): 0.76 |
| CP(C)COCP(C)C (99mTc complex, metal not drawn) [PL28] |  |  | 0.11 | 4.18 | 1.12 | 9.41 | 17.8 | 1.18 | 30.2 | 10.9 | 0.46 | 0.65 | 5.90 | 5.95 | 0.62 | 27.4 | 39.6 | Brain ([3]; Time P. I. 2): 0.04; Brain ([3]; Time P. I. 60): 0.02 |
| O=C1[O][Tc]([Cl])([Cl])([P+](c2ccccc2)(c2ccccc2)c2ccccc2)([P+](c2ccccc2)(c2ccccc2)c2ccccc2)=[N]c2ccccc21 [Complex 18, [TcCl2(NC6H4CO2)(PPh3)2]] | soluble in DMF and CH2Cl2 |  |  |  |  |  |  |  |  |  |  |  |  |  |  |  |  |  |
| [TcN(dppe)2Cl][PF6] [Example 8] | quite soluble in CH2Cl2 and insoluble in ether, petrol and alcohols | air-stable |  |  |  |  |  |  |  |  |  |  |  |  |  |  |  |  |
| CN([N]=[Tc]([Cl])([Cl])([Cl])([P](c1ccccc1)(c1ccccc1)c1ccccc1)[P](c1ccccc1)(c1ccccc1)c1ccccc1)c1ccccc1 [Example 10, TcNNPhMe(PPh3)2Cl3] | reasonably soluble | air-stable |  |  |  |  |  |  |  |  |  |  |  |  |  |  |  |  |
| CCOCC(COCC)(CP(C)C)CP(C)C (99mTc complex, metal not drawn) [PL42] |  |  | 0.06 | 28.6 | 1.22 | 5.35 | 22.8 | 2.56 | 18.1 | 2.61 | 8.99 | 1.19 | 3.52 | 14.7 | 1.57 | 21.3 | 31.8 | H/Bl ([3]; Time P. I. 2): 0.59; H/Li ([3]; Time P. I. 2): 0.73; S. I. ([3]; Time P. I. 2): 7.66; H/Bl ([3]; Time P. I. 60): 2.13; H/Li ([3]; Time P. I. 60): 1.12 |
| [N]#[Tc]([Cl])([Cl])([P](c1ccccc1)(c1ccccc1)c1ccccc1)[P](c1ccccc1)(c1ccccc1)c1ccccc1 [Example 7, TcNCl2(Ph3)2] | quite soluble in CH2Cl2 and insoluble in ether, petrol and alcohols | air-stable |  |  |  |  |  |  |  |  |  |  |  |  |  |  |  |  |
| CCCC[N+](CCCC)(CCCC)CCCC.Cc1ccc([N]=[Tc-]([Br])([Br])([Br])[Br])cc1 [Complex 2, Tetrabutylammonium(1+)tetrabromo(p-tolylimido) technetate (V) (1−)] |  | quite sensitive to adventitious moisture |  |  |  |  |  |  |  |  |  |  |  |  |  |  |  |  |
| [Tc(NC6H4Z)Cl(dppe)2] (BPh4) Z═CH3 [Complex 6] | quite soluble in CH2Cl2 and insoluble in ether, petrol and alcohols | air-stable |  |  |  |  |  |  |  |  |  |  |  |  |  |  |  |  |
| [Cl][Tc]([N]=Nc1ccccc1)([N]=Nc1ccccc1)([PH](c1ccccc1)(c1ccccc1)c1ccccc1)[PH](c1ccccc1)(c1ccccc1)c1ccccc1 [[TcCl(NNPh)2(PPh3)2], [Tc(NNPh)2Cl(PPh3)2]] | somewhat insoluble |  |  |  |  |  |  |  |  |  |  |  |  |  |  |  |  | solubility ([1]; listed as Tc(NNPh)2Cl(PPh3)2): only partially soluble in halogenated solvents and insoluble in alcohols |
| CCCC[N+](CCCC)(CCCC)CCCC.Cc1ccc([N]=[Tc-]([Cl])([Cl])([Cl])[Cl])cc1 [Complex 1, Tetrabutylammonium(1+)tetrachloro(p-tolylimido) technetate (V) (1−)] |  | quite sensitive to adventitious moisture |  |  |  |  |  |  |  |  |  |  |  |  |  |  |  |  |
| [TC(NNC6H4Cl)2(N2S2)]x [Complex 17] | too insoluble for satisfactory analysis by NMR |  |  |  |  |  |  |  |  |  |  |  |  |  |  |  |  |  |
| COCCC(CCOC)(CP(C)C)CP(C)C (99mTc complex, metal not drawn) [PL50] |  |  | 0.09 | 4.38 | 0.83 | 12.0 | 34.8 | 1.02 | 18.7 | 6.76 | 0.42 | 0.65 | 6.81 | 4.35 | 0.43 | 14.9 | 57.9 | H/Bl ([3]; Time P. I. 2): 2.68; H/Li ([3]; Time P. I. 2): 0.31; S. I. ([3]; Time P. I. 2): 12.8; H/Bl ([3]; Time P. I. 60): 22.2; H/Li ([3]; Time P. I. 60): 1.27 |
| COCCOCC(COCCOC)(CP(C)C)CP(C)C [PL43] |  |  | 0.16 | 21.5 | 0.55 | 9.19 | 21.4 | 1.47 | 21.7 | 25.4 | 1.14 | 0.26 | 2.32 | 9.08 | 0.22 | 10.9 | 45.6 | H/Bl ([3]; Time P. I. 2): 0.41; H/Li ([3]; Time P. I. 2): 0.38; S. I. ([3]; Time P. I. 2): 8.6; H/Bl ([3]; Time P. I. 60): 3.83; H/Li ([3]; Time P. I. 60): 0.40 |
